# Results as given in the supplement of paper PMC10307832.
# How the values were obtained:
# Experiment in all cases: relative viability (nuclei count vs DMSO), 5 days (fraction); higher = more cells survive
# RAF265 + Foretinib = compound: Cn1c(Nc2ccc(C(F)(F)F)cc2)nc2cc(Oc3ccnc(-c4ncc(C(F)(F)F)[nH]4)c3)ccc21 [RAF265] + COc1cc2c(Oc3ccc(NC(=O)C4(C(=O)Nc5ccc(F)cc5)CC4)cc3F)ccnc2cc1OCCCN1CCOCC1 [Foretinib] (partner 0.25 µM)
# Outline: (§1)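 Cells from lung cancer lines were seeded into 1536-well plates and, one day later, dosed by pin tool. Treatments were either a single drug or a fixed dose of an anchor drug with five library-drug doses (not always all listed) in √10 steps. After 5 days, nuclei were stained in a one-step fixation (final 0.05% Triton X-100, 1% formaldehyde, 1 ug/ml Hoechst) and counted on 4× images, and relative viability is the treated-to-vehicle nuclei ratio, as the median of duplicate plates.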
# Doramapimod + AZD7762 = compound: Cc1ccc(-n2nc(C(C)(C)C)cc2NC(=O)Nc2ccc(OCCN3CCOCC3)c3ccccc23)cc1 [Doramapimod] + NC(=O)Nc1cc(-c2cccc(F)c2)sc1C(=O)N[C@H]1CCCNC1 [AZD7762] (partner 0.2 µM)
# Outline: as §1
# RAF265 + Dasatinib = compound: Cn1c(Nc2ccc(C(F)(F)F)cc2)nc2cc(Oc3ccnc(-c4ncc(C(F)(F)F)[nH]4)c3)ccc21 [RAF265] + Cc1nc(Nc2ncc(C(=O)Nc3c(C)cccc3Cl)s2)cc(N2CCN(CCO)CC2)n1 [Dasatinib] (partner 0.075 µM)
# Outline: as §1
# IPA-3 + Pemetrexed = compound: C1=CC=C2C(=C1)C=CC(=C2SSC3=C(C=CC4=CC=CC=C43)O)O [IPA-3] + Nc1nc2[nH]cc(CCc3ccc(C(=O)N[C@@H](CCC(=O)O)C(=O)O)cc3)c2c(=O)[nH]1 [Pemetrexed] (partner 0.2 µM)
# Outline: as §1
Cell Line,relative viability (RAF265 + Foretinib; first compound 0.01 µM),relative viability (RAF265 + Foretinib; first compound 0.03162 µM),relative viability (RAF265 + Foretinib; first compound 0.1 µM),relative viability (RAF265 + Foretinib; first compound 0.3162 µM),relative viability (RAF265 + Foretinib; first compound 1 µM),relative viability (Doramapimod + AZD7762; first compound 0.02 µM),relative viability (Doramapimod + AZD7762; first compound 0.06325 µM),relative viability (Doramapimod + AZD7762; first compound 0.2 µM),relative viability (Doramapimod + AZD7762; first compound 0.6325 µM),relative viability (Doramapimod + AZD7762; first compound 2 µM),relative viability (RAF265 + Dasatinib; first compound 0.01 µM),relative viability (RAF265 + Dasatinib; first compound 0.03162 µM),relative viability (RAF265 + Dasatinib; first compound 0.1 µM),relative viability (RAF265 + Dasatinib; first compound 0.3162 µM),relative viability (RAF265 + Dasatinib; first compound 1 µM),relative viability (IPA-3 + Pemetrexed; first compound 0.2 µM),relative viability (IPA-3 + Pemetrexed; first compound 0.6325 µM),relative viability (IPA-3 + Pemetrexed; first compound 2 µM),relative viability (IPA-3 + Pemetrexed; first compound 6.325 µM),relative viability (IPA-3 + Pemetrexed; first compound 20 µM)
HCC-78,0.512,0.587,0.583,0.617,0.526,0.518,0.642,0.705,0.756,0.75,0.371,0.482,0.457,0.387,0.34,0.918,0.894,0.999,0.869,0.953
NCI-H1395,0.915,1.02,0.972,0.972,0.697,0.392,0.39,0.355,0.443,0.349,0.449,0.432,0.395,0.336,0.372,0.925,0.842,0.822,0.887,0.912
NCI-H2126,1.16,1.2,1.17,1.11,0.668,0.865,1.02,0.942,1.02,1.04,0.716,0.656,0.622,0.464,0.354,0.726,0.706,0.721,0.678,0.712
H3255,0.88,0.88,0.847,–,0.55,1.01,1,0.972,0.956,0.762,0.526,0.332,0.381,–,0.319,0.572,0.551,0.561,0.527,0.548
HCC-15,1.03,1.04,0.991,0.883,0.673,1.35,1.17,1.23,–,1.17,0.66,0.662,0.688,0.426,0.337,0.222,0.23,0.214,0.225,0.221
NCI-H2342,1.11,1.06,1.12,0.992,0.968,0.416,0.513,0.49,0.486,0.485,0.319,0.349,0.298,0.276,0.288,0.868,0.761,0.841,0.823,0.924
ChaGo-K-1,0.969,0.827,0.825,0.819,0.646,0.884,0.846,0.894,0.779,0.768,0.64,0.644,0.515,0.42,0.497,0.257,0.264,0.272,0.281,0.263
